According to US8497278B2, “Imidazo[1,2-a]pyridine compounds” (priority 2008, dated 2013):

Assays:
[1] = tested on: central benzodiazepine receptors; assay: Central benzodiazepine receptor binding (test of Speth et al.); conditions: 1000 nM of the compound
Method in brief: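 Values are percent inhibition of central benzodiazepine receptor binding at 1000 nM compound (initial single-point screen at 1.0E-09, 1.0E-07 and 1.0E-05 M). Speth et al. binding test; nonspecific binding defined with excess unlabelled ligand and subtracted from total.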

[2] = molecular target: T1, α1 subtype containing GABA-A receptors (Homo sapiens, UniProt P14867+P18507); assay: Two-electrode voltage clamp electrophysiology in Xenopus oocytes, potentiation of GABA EC20 response, α1; type: cell-based; conditions: 100 nM compound, read-out: Percentage of potentiation alpha1
T1 construct: expressed in transfected cells; host or cells: Xenopus laevis oocytes, cRNA injected
Method: (§1) Electrophysiology protocol: Oocytes were prepared from adult female Xenopus laevis frogs. cRNA encoding human α1, α2, α3, α5, β3 and γ2L GABAA receptor subunits was injected into the cytoplasm of stage 5 or 6 oocytes using the Robocyte Robot (Multi Channel Systems, Reutlingen, Germany). Two-electrode voltage clamp recordings were made in 96-well plates using the Robocyte Robot. Oocytes were impaled using recording heads with two glass electrodes containing 1.5 M potassium acetate and 0.5 M KCl and held at a membrane potential of −80 mV. Oocytes were continually perfused with a ND96 solution (96 mM NaCl, 2 mM KCl, 0.1 mM CaCl2, and 5 mM HEPES, pH 7.5) using a Gilson 222 XL Liquid Handler and Gilson Minipuls 3 Peristaltic Pump (Gilson Medical Electronics, Middleton, Wis., USA). The protocol consisted of three 20-s applications of GABA that gave a 20% of the maximum response (EC20: 60 μM) to allow for headroom to determine a baseline GABA response. To assess the potentiation, oocytes were first exposed to a single 1 μM chlordiazepoxide (CDP) as a potentiation standard. Oocytes with insufficient expression levels (currents below threshold) or insufficient γ2L subunit incorporation (judged by rapid desensitization upon GABA application, or by insufficient potentiation by CDP) were not included in analysis. Following this control application, a given oocyte was exposed to test compounds at 100 nM concentrations. Only one concentration of one compound was tested per oocyte. […] One skilled in the art will recognize that subtypes contribute to the effects of GABA-A modulators. Such that compounds favoring different subtypes can have different therapeutic effects. The magnitude of modulation, for example, partial modulators can influence the effects in vivo. “++” indicates a greater modulation that “+” so that at any given subtype “++” inducates a greater amount of modulation for that subtype. In some embodiments, modulation favoring alpha 1 relative to alpha2 and/or alpha 3 can have sedative hypnotic effects. In other embodiments, compounds with reduced selectivity of alpha 1 can express anxiolytic effects with less sedation. Compounds with selectivity for alpha 5 can have memory/cognition enhancing effects.

[3] = molecular target: T2, α2 subtype containing GABA-A receptors (Homo sapiens, UniProt P18507+P47869); assay: Two-electrode voltage clamp electrophysiology in Xenopus oocytes, potentiation of GABA EC20 response, α2; type: cell-based; conditions: 100 nM compound, read-out: Percentage of potentiation alpha2
T2 construct: expressed in transfected cells; host or cells: Xenopus laevis oocytes, cRNA injected
Method: as §1

T1 sequence (P14867 28-456): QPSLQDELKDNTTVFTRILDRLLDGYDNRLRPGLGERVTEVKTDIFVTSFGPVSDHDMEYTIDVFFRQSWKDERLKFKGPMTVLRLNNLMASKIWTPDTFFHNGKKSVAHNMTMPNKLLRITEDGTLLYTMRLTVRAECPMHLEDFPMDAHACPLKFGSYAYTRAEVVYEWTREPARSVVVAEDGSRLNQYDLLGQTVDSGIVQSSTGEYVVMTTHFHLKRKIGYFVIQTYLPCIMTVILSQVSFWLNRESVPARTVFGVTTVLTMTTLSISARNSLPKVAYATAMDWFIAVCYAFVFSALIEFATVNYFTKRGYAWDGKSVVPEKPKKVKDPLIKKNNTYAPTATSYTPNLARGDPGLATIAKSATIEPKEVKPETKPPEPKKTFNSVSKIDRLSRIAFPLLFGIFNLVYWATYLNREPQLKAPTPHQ
T1 sequence (P28472 26-473 partner): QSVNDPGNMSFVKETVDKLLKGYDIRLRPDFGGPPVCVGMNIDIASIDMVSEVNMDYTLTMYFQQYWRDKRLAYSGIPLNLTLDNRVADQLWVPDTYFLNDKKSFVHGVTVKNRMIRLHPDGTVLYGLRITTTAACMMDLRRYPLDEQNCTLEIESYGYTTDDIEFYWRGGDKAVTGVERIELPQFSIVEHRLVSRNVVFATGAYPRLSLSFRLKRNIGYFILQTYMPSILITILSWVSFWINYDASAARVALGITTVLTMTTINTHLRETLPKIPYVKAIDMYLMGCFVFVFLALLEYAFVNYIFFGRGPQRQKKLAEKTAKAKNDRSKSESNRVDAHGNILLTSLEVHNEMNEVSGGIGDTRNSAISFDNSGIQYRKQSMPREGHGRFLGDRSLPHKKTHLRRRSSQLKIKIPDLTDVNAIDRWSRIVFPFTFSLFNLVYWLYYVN
T1 sequence (P18507 40-475): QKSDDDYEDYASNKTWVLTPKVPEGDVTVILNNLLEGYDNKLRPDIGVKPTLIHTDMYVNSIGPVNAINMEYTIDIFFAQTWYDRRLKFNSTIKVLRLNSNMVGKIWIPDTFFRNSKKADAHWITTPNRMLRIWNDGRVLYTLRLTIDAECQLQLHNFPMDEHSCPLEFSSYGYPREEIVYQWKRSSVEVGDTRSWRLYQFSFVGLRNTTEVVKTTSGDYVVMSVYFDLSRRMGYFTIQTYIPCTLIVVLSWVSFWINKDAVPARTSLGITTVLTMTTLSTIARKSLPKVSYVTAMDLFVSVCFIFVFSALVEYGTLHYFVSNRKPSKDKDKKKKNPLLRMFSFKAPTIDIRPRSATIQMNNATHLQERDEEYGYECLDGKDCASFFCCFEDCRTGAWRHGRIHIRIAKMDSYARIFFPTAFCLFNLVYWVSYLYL
T2 sequence (P47869 29-451): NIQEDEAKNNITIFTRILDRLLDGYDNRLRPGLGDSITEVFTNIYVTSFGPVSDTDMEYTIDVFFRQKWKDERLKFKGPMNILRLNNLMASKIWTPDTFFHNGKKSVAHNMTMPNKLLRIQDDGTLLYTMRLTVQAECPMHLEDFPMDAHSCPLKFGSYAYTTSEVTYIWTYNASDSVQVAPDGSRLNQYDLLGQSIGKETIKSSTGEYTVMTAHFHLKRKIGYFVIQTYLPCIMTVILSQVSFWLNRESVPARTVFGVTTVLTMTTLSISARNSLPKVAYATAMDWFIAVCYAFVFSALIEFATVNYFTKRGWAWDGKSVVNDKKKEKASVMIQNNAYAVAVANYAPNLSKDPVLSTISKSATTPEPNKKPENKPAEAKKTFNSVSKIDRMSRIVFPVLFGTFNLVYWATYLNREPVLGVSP
T2 sequence (P28472 26-473 partner): as the sequence (P28472 26-473 partner) above
T2 sequence (P18507 40-475): as the sequence (P18507 40-475) above

Row | SMILES | % Inhibition at 1000 nM for CBZD [1] | activation at 0.1 µM [2] [%] | activation at 0.1 µM [3] [%]
1 | Cc1ccc(-c2nc3ccc(C)cn3c2CNc2nc(C)cc(Cl)n2)cc1 [Compound 147, 4-chloro-6-methyl-N-((6-methyl-2-p-tolylimidazo[1,2-a]pyridin-3-yl)methyl)pyrimidin-2-amine] | ++ (percentage of inhibition of central BZD site binding is greater than 80% in the presence of 1000 nM of the compound) | ≥ 50 | 
2 | O=C(NO)c1nc(Cc2c(-c3ccc(F)cc3)nc3ccc(F)cn23)no1 [Compound 223, 3-((2-(4-fluorophenyl)-6-fluoroimidazo[1,2-a]pyridin-3-yl)methyl)-N-hydroxy-1,2,4-oxadiazole-5-carboxamide] |  | ≤ -10 | 10 to 50
3 | CN(C)c1ccn(Cc2c(-c3ccc(Cl)cc3)nc3ccccn23)c(=O)n1 [Compound 135, 1-((2-(4-chlorophenyl)imidazo[1,2-a]pyridin-3-yl)methyl)-4-(dimethylamino)pyrimidin-2(1H)-one] | ++ (percentage of inhibition of central BZD site binding is greater than 80% in the presence of 1000 nM of the compound) |  | ≥ 50
4 | Cc1ccnc(NCc2c(-c3ccc(Cl)cc3)nc3ccccn23)n1 [Compound 157, [2-(4-Chloro-phenyl)-imidazo[1,2-a]pyridin-3-ylmethyl]-(4-methyl-pyrimidin-2-yl)-amine] | ++ (percentage of inhibition of central BZD site binding is greater than 80% in the presence of 1000 nM of the compound) | 10 to 50 | 
5 | Clc1ccc(-c2nc3ccc(Cl)cn3c2Cc2cn[nH]n2)cc1 [Compound 227, 3-((2H-1,2,3-triazol-4-yl)methyl)-6-chloro-2-(4-chlorophenyl)imidazo[1,2-a]pyridine] | ++ (percentage of inhibition of central BZD site binding is greater than 80% in the presence of 1000 nM of the compound) | ≥ 50 | 
6 | Cc1cc(Cl)nc(NCc2c(-c3ccc(F)cc3)nc3ccc(Cl)cn23)n1 [Compound 162, 4-chloro-N-((6-chloro-2-(4-fluorophenyl)imidazo[1,2-a]pyridin-3-yl)methyl)-6-methylpyrimidin-2-amine] | ++ (percentage of inhibition of central BZD site binding is greater than 80% in the presence of 1000 nM of the compound) | 10 to 50 | 
7 | COC(=O)c1ncnn1Cc1c(-c2ccc(C)cc2)nc2ccc(C)cn12 [Compound 10, 2-(6-Methyl-2-p-tolyl-imidazo[1,2-a]pyridin-3-ylmethyl)-2H-[1,2,4]triazole-3-carboxylic acid methyl ester] | ++ (percentage of inhibition of central BZD site binding is greater than 80% in the presence of 1000 nM of the compound) |  | 
8 | CNC(=O)c1cc(C)n(Cc2c(-c3ccc(Cl)cc3)nc3ccccn23)n1 [Compound 80, 1-((2-(4-chlorophenyl)imidazo[1,2-a]pyridin-3-yl)methyl)-N,5-dimethyl-1H-pyrazole-3-carboxamide] | ++ (percentage of inhibition of central BZD site binding is greater than 80% in the presence of 1000 nM of the compound) |  | 
9 | CCC1=C(C)CN(Cc2c(-c3ccc(C)cc3)nc3ccc(C)cn23)C1=O [Compound 93, 3-ethyl-4-methyl-1-((6-methyl-2-p-tolyl-H-imidazo[1,2-a]pyridin-3-yl)methyl)-1H-pyrrol-2(5H)-one] | ++ (percentage of inhibition of central BZD site binding is greater than 80% in the presence of 1000 nM of the compound) |  | 
10 | COC(=O)c1cc2occc2n1Cc1c(-c2ccc(Cl)cc2)nc2ccccn12 [Compound 33, Methyl 4-((2-(4-chlorophenyl)imidazo[1,2-a]pyridin-3-yl)methyl)-4H-furo[3,2-b]pyrrole-5-carboxylate] | ++ (percentage of inhibition of central BZD site binding is greater than 80% in the presence of 1000 nM of the compound) |  | 
11 | Cc1ccc(-c2nc3ccc(C)cn3c2CNc2nc3ccccc3n2C)cc1 [Compound 154, 1-methyl-N-((6-methyl-2-p-tolylH-imidazo[1,2-a]pyridin-3-yl)methyl)-1H-benzo[d]imidazol-2-amine] | ++ (percentage of inhibition of central BZD site binding is greater than 80% in the presence of 1000 nM of the compound) |  | 
12 | Cc1cccc(=O)n1Cc1c(-c2ccc(Cl)cc2)nc2ccc(Cl)cn12 [Compound 107, 1-((6-chloro-2-(4-chlorophenyl)H-imidazo[1,2-a]pyridin-3-yl)methyl)-6-methylpyridin-2(1H)-one] | ++ (percentage of inhibition of central BZD site binding is greater than 80% in the presence of 1000 nM of the compound) |  | 
13 | Cc1nc(Cc2c(-c3ccc(Cl)cc3)nc3ccccn23)no1 [Compound 202, 3-((2-(4-chlorophenyl)imidazo[1,2-a]pyridin-3-yl)methyl)-5-methyl-1,2,4-oxadiazole] | ++ (percentage of inhibition of central BZD site binding is greater than 80% in the presence of 1000 nM of the compound) |  | 
14 | Cc1ccc(-c2nc3ccc(C)cn3c2CNc2cnccn2)cc1 [Compound 144, N-((6-methyl-2-p-tolylH-imidazo[1,2-a]pyridin-3-yl)methyl)pyrazin-2-amine] | ++ (percentage of inhibition of central BZD site binding is greater than 80% in the presence of 1000 nM of the compound) |  | 
15 | Cc1ccc(-c2nc3ccc(C)cn3c2Cn2c(C)c(C)sc2=S)cc1 [Compound 130, 4,5-Dimethyl-3-(6-methyl-2-p-tolyl-imidazo[1,2-a]pyridin-3-ylmethyl)-3H-thiazole-2-thione] | ++ (percentage of inhibition of central BZD site binding is greater than 80% in the presence of 1000 nM of the compound) |  | 
16 | Cc1ccc(-c2nc3ccc(C)cn3c2CN2CCCCC2=O)cc1 [Compound 95, 1-((6-methyl-2-p-tolyl-H-imidazo[1,2-a]pyridin-3-yl)methyl)piperidin-2-one] | ++ (percentage of inhibition of central BZD site binding is greater than 80% in the presence of 1000 nM of the compound) |  | 
17 | Cc1ccc(-c2nc3ccc(C)cn3c2CNn2c(C)nc3ccccc3c2=O)cc1 [Compound 155, 2-Methyl-3-[(6-methyl-2-p-tolyl-imidazo[1,2-a]pyridin-3-ylmethyl)-amino]-3H-quinazolin-4-one] | + (percentage of inhibition of central BZD site binding is greater than 50% but less than 80% in the presence of 1000 nM of the compound) |  | 
18 | COC(=O)c1ncn(Cc2c(-c3ccc(C)cc3)nc3ccc(C)cn23)n1 [Compound 11, 1-(6-Methyl-2-p-tolyl-imidazo[1,2-a]pyridin-3-ylmethyl)-1H-[1,2,4]triazole-3-carboxylic acid methyl ester] | ++ (percentage of inhibition of central BZD site binding is greater than 80% in the presence of 1000 nM of the compound) |  | 
19 | CSc1nsc(=S)n1Cc1c(-c2ccc(C)cc2)nc2ccc(C)cn12 [Compound 129, 3-Methylsulfanyl-4-(6-methyl-2-p-tolyl-imidazo[1,2-a]pyridin-3-ylmethyl)-4H-[1,2,4]thiadiazole-5-thione] | ++ (percentage of inhibition of central BZD site binding is greater than 80% in the presence of 1000 nM of the compound) |  | 
20 | Cc1nc(Cc2c(-c3ccc(F)cc3)nc3ccc(F)cn23)no1 [Compound 201, 3-((6-fluoro-2-(4-fluoropnyl)imidazo[1,2-a]pyridin-3-yl)methyl)-5-methyl-1,2,4-oxadiazole] | ++ (percentage of inhibition of central BZD site binding is greater than 80% in the presence of 1000 nM of the compound) |  | 
